According to paper PMC5507595 (Free radical biology & medicine, 2017):

Target: protein disulfide isomerase (PDI) (Homo sapiens, UniProt P07237)
Assay: absorbance titration of MNS with reduced PDI
Format: binding

Sequence of protein disulfide isomerase (PDI) (P07237 18-508): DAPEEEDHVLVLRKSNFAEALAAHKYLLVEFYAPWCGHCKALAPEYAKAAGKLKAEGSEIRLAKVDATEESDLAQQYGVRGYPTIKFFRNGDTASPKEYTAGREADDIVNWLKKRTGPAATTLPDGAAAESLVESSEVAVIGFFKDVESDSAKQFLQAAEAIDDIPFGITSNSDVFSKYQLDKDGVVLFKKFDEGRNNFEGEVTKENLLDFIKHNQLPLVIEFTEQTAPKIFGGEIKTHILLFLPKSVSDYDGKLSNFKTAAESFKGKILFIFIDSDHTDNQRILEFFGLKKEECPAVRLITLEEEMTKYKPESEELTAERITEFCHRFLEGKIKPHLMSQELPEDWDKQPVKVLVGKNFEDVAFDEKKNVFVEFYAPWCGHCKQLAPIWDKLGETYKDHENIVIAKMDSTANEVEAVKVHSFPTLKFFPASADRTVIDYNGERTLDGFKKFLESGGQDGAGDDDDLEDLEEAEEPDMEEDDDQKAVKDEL

For `O=[N+]([O-])C=Cc1ccc2c(c1)OCO2` [3,4-methylenedioxy-β-nitrostyrene], the Kd was “low micromolar”.
